Measured values from US20260034116A1, “CANCER COMBINATION THERAPY INCLUDING A BCL-2 INHIBITOR” (RYVU THERAPEUTICS S.A., priority 2022, published 2026).
Where two headings read alike, the source gives them in different places.

How the values were obtained:
[1] = test system: KG1 cells (FLT3 wt); assay: in vitro standard cytotoxicity assay (MTS), Ven and/or 5-Aza 48 h followed by Men 24 h; assay type: cell-based, human; conditions: same time points as combination; for IC50: read-out: IC50 dose level
Description: (§1) In an in vitro standard cytotoxicity assay, three AML cell lines (KG1 [FLT3 wt], MV4-11 [FLT3 ITD] and MOLM-13 [FLT3 ITD]) were treated with Ven and/or 5-Aza for 48 hours, followed by Men treatment for additional 24 hours. […] In MOLM13 cells (FLT3 ITD), the CI of the triple combination was similar to the CIs of the Men-Ven and the VenAza combinations (see Table 3).
(§2) Human acute myeloid leukemia cell lines KG-1, MV4-11 and MOLM-13 were obtained from DSMZ, Braunschweig, Germany (ACC14, ACC102 and ACC554). KG-1 and MV4-11 cells were cultured in RPMI 1640 medium (Gibco, Life Technologies, Carlsbad, CA, USA) supplemented with 10% fetal bovine serum (FBS) (Sigma, Saint Louis, CA, USA). MOLM-13 cells were grown in RPMI with 20% FBS. All cells were incubated at 37° C., 5% CO2, 80% relative humidity. The human acute myeloid leukemia cell line MOLM-16 was obtained from DSMZ, Braunschweig, Germany (cell line number ACC-555. MOLM-16 cells were grown in RPMI with 20% FBS (Sigma, Saint Louis, CA, USA). Cells were incubated at 37° C., 5% CO2, 80% relative humidity.
(§3) Men (alternatively referred to as “MEN1703”, in the HCI-salt form (CAS number 2769008-22-) with the IUPAC name 5,6-dibromo-4-nitro-2-(piperidin-4-yl)-1-(propan-2-yl)-1H-1,3-benzodiazole-4-amine hydrochloride (batch no. A/2201/24/1)), synthesized at Aptuit (VR) and Venetoclax (alternatively referred to as “Ven” or “ABT-199”, ChemCruz no. SC-472284A) were dissolved in DMSO, divided into aliquots and stored at-80° C. until use. Stock solutions were added at appropriate concentration in culture medium before the addition to cells. […] A stock solution was added at appropriate concentration in culture medium before the addition to cells.
(§4) For cytotoxicity studies cells were seeded at appropriate density (50.000 cells/well) prior to addition of Ven and 5-Aza at day 0. 5-Aza was added every 24 hours due to degradation (Hollen-bach PW, 2010 and Chang E, 2016). Then, after 48 hours, Men was added to cultured cells for the final 24 h (overall, a period of 72 h was tested). The concentration range was previously identified in single agent cytotoxic assay for the same time points in order to include in the combination experiment the IC10, IC25, IC50 and IC75 values for each drug and for each AML cell lines (see Tables 1 to 3). All possible combinations were assessed: Men+Ven, Ven+5-Aza, Men+5-Aza and men+5-Aza+Ven (mav). After 72 hours, CellTiter 96 Aqueous One Solution Reagent (MTS) (Promega, Madison. WI, USA) was added to assess the cell viability. […] was measured 4h later using Tecan Infinite M200 (Tecan Trading AG, Switzerland), recording absorbance at 490 nm. Quantitative measurement of synergism/antagonism was evaluated with Combination Index (CI) on the Fraction affected (Fa) using CompuSyn (ComboSyn, Inc. Paramus, NJ, USA) (Chou TC, 2006).

[2] = test system: MV4-11 cells (FLT3 ITD); assay: as above; assay type: cell-based, human; conditions: single agent cytotoxic assay, same time points as combination; for IC50: read-out: IC50 dose level
Description: as §1, §2, §3, §4

[3] = test system: MOLM-13 cells (FLT3 ITD); assay: as above; assay type: cell-based, human; conditions: MOLM13 cells, single agent cytotoxic assay, same time points as combination; for IC50: read-out: IC50 dose level
Description: as §1, §2, §3, §4

[4] = test system: MV4-11 cells (FLT3 ITD); assay: in vitro standard cytotoxicity experiment (MTS), 72 h, MEN with S65487 or AZD4320; assay type: cell-based, human; conditions: single agent
Description: (§5) In an in vitro standard cytotoxicity experiment, two AML cell lines (MOLM-13 [FLT3 ITD] and MV4-11 [FLT3 ITD]) were treated for 72 hours with MEN and S65487 either as a single agent or in combination.
(§6) In an in vitro standard cytotoxicity experiment, two AML cell lines (MOLM-13 [FLT3 ITD] and MV4-11 [FLT3 ITD]) were treated for 72 hours with MEN and AZD4320 either as a single agent or in combination.
(§7) Human acute myeloid leukemia cell lines MV4-11 and MOLM-13 were obtained from DSMZ, Braunschweig, Germany (ACC102 and ACC554). MV4-11 cells were cultured in RPMI 1640 medium (Gibco, Life Technologies, Carlsbad, CA, USA) supplemented with 10% fetal bovine serum (FBS) (Sigma, Saint Louis, CA, USA). MOLM-13 cells were grown in RPMI with 20% FBS. All cells were incubated at 37° C., 5% CO2, 80% relative humidity.
(§8) MEN1703 (alternatively referred to as “Men”, “MEN”, “MEN1703” or “SEL24/MEN1703”), in the HCl-salt form (CAS number 2769008-22-) with the IUPAC name 5,6-dibromo-4-nitro-2-(piperidin-4-yl)-1-(propan-2-yl)-1H-1,3-benzodiazole-4-amine hydrochloride (batch no. A/2201/24/1)), synthesized at Aptuit (VR); AZD4320 from MedChem Express, Monmouth Junction, NJ, USA, batch no. 64354) and S65487 from MedChem Express, Monmouth Junction, NJ, USA were dissolved in DMSO, divided into aliquots and stored at −80° C. until use. Stock solutions were added at appropriate concentration in culture medium before the addition to cells.
(§9) For cytotoxicity studies cells were seeded at appropriate density (50,000 cells/well) prior to addition of MEN and Quiz at day 0. The concentration range was previously identified in single agent cytotoxicity assays for the same time points in order to include in the combination experiment the IC10, IC25, IC50 and IC75 values for each drug and for each AML cell lines (see Tables 4 to 7). After 72 hours, CellTiter 96 Aqueous One Solution Reagent (MTS) (Promega, Madison. WI, USA) was added to assess the cell viability. […] was measured 4 h later using Tecan Infinite M200 (Tecan Trading AG, Switzerland), recording absorbance at 490 nm. Quantitative measurement of synergism/antagonism was evaluated with Combination Index (CI) on the Fraction affected (Fa) using CompuSyn (ComboSyn, Inc. Paramus, NJ, USA) (Chou TC, 2006).

[5] = test system: MOLM-13 cells (FLT3 ITD); assay: as above; assay type: cell-based, human; conditions: single agent
Description: as §5, §6, §7, §8, §9

[6] = test system: broad panel of AML cell lines in xenograft models; conditions: in vivo; cited from earlier work
[7] = test system: AML; conditions: single agent in AML treatment; cited from earlier work
[8] = Homo sapiens, KG-1, single agent cytotoxic assay

SMILES | IC10 dose level ([1]; single agent cytotoxic assay) | IC25 dose level ([1]; single agent cytotoxic assay) | IC75 dose level ([1]; single agent cytotoxic assay) | IC10 dose level [2] | IC25 dose level [2] | IC75 dose level [2] | IC10 dose level [3] | IC25 dose level [3] | IC75 dose level [3] | IC10 [4] | IC25 [4] | IC50 [4] | IC75 [4] | IC10 [5] | IC25 [5] | IC50 [5] | IC75 [5] | IC50 [1, 8] | IC50 ([2]; Homo sapiens) | IC50 ([3]; Homo sapiens, MOLM-13) | also measured
CC(C)n1c(C2CCNCC2)nc2c([N+](=O)[O-])c(Br)c(Br)cc21 [Men, 5,6-dibromo-4-nitro-2-(piperidin-4-yl)-1-(pro-pan-2-yl)-1H-1,3-benzodiazole] | 151 nM | 293 nM | 1103 nM | 6 nM | 48 nM | 2770 nM | 40 nM | 280 nM | 10880 nM | 13.15 nM | 35 nM | 93 nM | 248.6 nM | 87.29 nM | 211.1 nM | 510 nM | 1234 nM | – | – | – | IC50 ([1]; single agent cytotoxic assay): 569 nM; IC50 [2]: 366 nM; IC50 [3]: 1730 nM; growth of AML cell lines in xenograft models [6]: inhibit the growth of a broad panel of AML cell lines in xenograft models
Nc1ncn([C@@H]2O[C@H](CO)[C@@H](O)[C@H]2O)c(=O)n1 [Aza, 5-Azacitidine] | 97 nM | 270 nM | 2150 nM | 140 nM | 300 nM | 1410 nM | 83 nM | 280 nM | 3280 nM | – | – | – | – | – | – | – | – | 760 nM | 650 nM | 960 nM | –
CC1(C)CCC(CN2CCN(c3ccc(C(=O)NS(=O)(=O)c4ccc(NCC5CCOCC5)c([N+](=O)[O-])c4)c(Oc4cnc5[nH]ccc5c4)c3)CC2)=C(c2ccc(Cl)cc2)C1 [Ven, Venetoclax] | 180 nM | 550 nM | 4950 nM | 0.276 nM | 0.829 nM | 7 nM | 12 nM | 75 nM | 2770 nM | – | – | – | – | – | – | – | – | 1650 nM | 3 nM | 450 nM | safety [7]: safe
Cc1c(N(C(=O)c2cc(-c3cc(Cl)ccc3C(=O)N3Cc4ccccc4C[C@H]3CN3CCOCC3)n(C)c2C)c2ccc(O)cc2)cc(C#N)n1C [S65487] | – | – | – | – | – | – | – | – | – | 2.5 nM | 6.6 nM | – | 48 nM | 14.5 nM | 57 nM | – | 880 nM | – | – | – | IC50 ([4]; Homo sapiens): 18 nM; IC50 ([5]; Homo sapiens): 224 nM
CN(CCO)CC[C@H](CSc1ccccc1)Nc1ccc(S(=O)(=O)NC(=O)c2ccc(N3CCC([C@@H](O)c4ccccc4-c4ccc(Cl)cc4)CC3)cc2)cc1S(=O)(=O)C(F)(F)F [AZD4320] | – | – | – | – | – | – | – | – | – | 0.65 nM | 1.3 nM | 2.7 nM | 5.5 nM | 3.4 nM | 11 nM | 37 nM | 120 nM | – | – | – | –
